# Tests used:
# [1] = system: galium; experiment: Test C preemergence; format: in vivo, Galium aparine
# Method in brief: (§1)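 Sown in loam/sand → sprayed pre-emergence; or grown to 1–4 leaves in peat mix → sprayed post-emergence. Same solvent/surfactant formulation both ways. Greenhouse 13–15 d. Score 0–100 visual.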
# [2] = system: pigweed; experiment: Test A preemergence; format: in vivo, Amaranthus retroflexus
# Method in brief: (§2)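 Visual 0–100 rating (100 = complete control) taken about 10 d post-treatment relative to untreated checks. Preemergence: directed soil spray on sown loam/sand pots. Postemergence: seedlings 2–10 cm, 1–2 leaf. Non-phytotoxic solvent formulation with surfactant.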
# [3] = system: corn; experiment: Test C postemergence; format: in vivo, Zea mays
# Method in brief: as §1
# [4] = system: Italian ryegrass; experiment: Test C postemergence; format: in vivo, Lolium multiflorum
# Method in brief: as §1
# [5] = system: Heteranthera limosa; experiment: Test B flooded paddy test; format: in vivo; conditions: Flood, 250 g ai/ha, 0 to 100 scale where 0 is no effect and 100 is complete control
# Method in brief: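 Greenhouse flooded-pot test: compounds dosed into 3 cm standing water over 2-leaf plants, flood held constant. Rated visually after 13–15 days on 0–100 (complete control = 100); a dash marks no test result.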
# [6] = system: giant foxtail; experiment: Test A postemergence; format: in vivo, Setaria faberii; conditions: 0 to 100 scale where 0 is no effect and 100 is complete control
# Method in brief: as §2
# [7] = system: wheat; experiment: Test A postemergence; format: in vivo, Triticum aestivum; conditions: 0 to 100 scale where 0 is no effect and 100 is complete control
# Method in brief: as §2
# [8] = system: johnsongrass; experiment: Test C preemergence; format: in vivo, Sorghum halepense
# Method in brief: as §1
# [9] = system: wheat, winter; experiment: Test C preemergence; format: in vivo, Triticum aestivum
# Method in brief: as §1
# [10] = system: corn; experiment: Test A preemergence; format: in vivo, Zea mays
# Method in brief: as §2
# [11] = system: waterhemp; experiment: Test C preemergence; format: in vivo, Amaranthus rudis
# Method in brief: as §1
# [12] = system: large (Lg) crabgrass; experiment: Test A postemergence; format: in vivo, Digitaria sanguinalis
# Method in brief: as §2
# [13] = 62 g ai/ha, preemergence, scale 0 (no effect) to 100 (complete control)
# [14] = 125 g ai/ha, preemergence, scale 0 (no effect) to 100 (complete control)
# [15] = 250 g ai/ha, preemergence, scale 0 (no effect) to 100 (complete control)
# [16] = Preemergence, 31 g ai/ha, scale 0 to 100, 0 no effect, 100 complete control
# [17] = 125 g ai/ha, 0 to 100 scale where 0 is no effect and 100 is complete control
# [18] = 500 g ai/ha, 0 to 100 scale, 0 no effect, 100 complete control, approx. 10 days
# [19] = Postemergence, 31 g ai/ha, scale 0 to 100 (0 no effect, 100 complete control), 13 to 15 days
# [20] = Postemergence, 62 g ai/ha, scale 0 to 100 (0 no effect, 100 complete control)
compound,measurement,setting,value
"N#Cc1cccc(Oc2ncc(F)cn2)c1-n1cc(C(F)(F)F)cn1 [Compound 79, 3-[(5-fluoro-2-pyrimidinyl)oxy]-2-[4-(trifluoromethyl)-1H-pyrazol-1-yl]benzonitrile]",pest or weed control at 62 g/ha,"[1]; Galium, pre-emergence, 62 g ai/ha, preemergence, scale 0 (no effect) to 100 (complete control), read-out: Galium plant response rating",90%
same,pest or weed control at 125 g/ha,"[1]; Galium, pre-emergence, 125 g ai/ha, preemergence, scale 0 (no effect) to 100 (complete control), read-out: Galium plant response rating",90%
same,pest or weed control at 250 g/ha,"[1]; Galium, pre-emergence, 250 g ai/ha, preemergence, scale 0 (no effect) to 100 (complete control), read-out: Galium plant response rating",90%
same,pest or weed control at 31 g/ha,"[1]; Galium, pre-emergence, Preemergence, 31 g ai/ha, scale 0 to 100, 0 no effect, 100 complete control, read-out: Plant response rating, Galium",90%
same,pest or weed control at 125 g/ha,"[2]; Amaranthus retroflexus, pre-emergence, 125 g ai/ha, 0 to 100 scale where 0 is no effect and 100 is complete control, read-out: Plant response rating, Pigweed",100%
same,pest or weed control at 500 g/ha,"[2]; Amaranthus retroflexus, pre-emergence, 240 h, 500 g ai/ha, 0 to 100 scale, 0 no effect, 100 complete control, approx. 10 days, read-out: Pigweed plant response rating",100%
same,plant injury at 125 g/ha,"[3]; Zea mays, post-emergence, 125 g ai/ha, postemergence, read-out: Plant response rating (0 to 100), Corn",15%
same,plant injury at 250 g/ha,"[3]; Zea mays, post-emergence, 250 g ai/ha, postemergence, read-out: Plant response rating (0 to 100), Corn",35%
same,"Corn plant response rating (crop injury, 0 = no effect, 100 = complete kill) at 31 g/ha","[3]; Zea mays, post-emergence, Postemergence, 31 g ai/ha, scale 0 to 100 (0 no effect, 100 complete control), 13 to 15 days",5%
same,"Corn plant response rating (crop injury, 0 = no effect, 100 = complete kill) at 62 g/ha","[3]; Zea mays, post-emergence, Postemergence, 62 g ai/ha, scale 0 to 100 (0 no effect, 100 complete control)",5%
same,pest or weed control at 125 g/ha,"[4]; Lolium multiflorum, post-emergence, 125 g ai/ha, postemergence, read-out: Plant response rating (0 to 100), Ryegrass, Italian",20%
same,pest or weed control at 250 g/ha,"[4]; Lolium multiflorum, post-emergence, 250 g ai/ha, postemergence, read-out: Plant response rating (0 to 100), Ryegrass, Italian",20%
same,pest or weed control at 31 g/ha,"[4]; Lolium multiflorum, post-emergence, Postemergence, 31 g ai/ha, scale 0 to 100 (0 no effect, 100 complete control), 13 to 15 days, read-out: Plant response rating, Ryegrass, Italian",5%
same,pest or weed control at 62 g/ha,"[4]; Lolium multiflorum, post-emergence, Postemergence, 62 g ai/ha, scale 0 to 100 (0 no effect, 100 complete control), read-out: Plant response rating, Ryegrass, Italian",10%
same,pest or weed control at 250 g/ha,"[5]; Heteranthera limosa, read-out: Plant response rating, Ducksalad",95%
same,pest or weed control at 125 g/ha,"[6]; Setaria faberi, post-emergence, 240 h, 125 g ai/ha, read-out: Plant response rating, Foxtail, Giant",100%
same,pest or weed control at 500 g/ha,"[6]; Setaria faberi, post-emergence, 240 h, 500 g ai/ha, read-out: Plant response rating, Foxtail, Giant",100%
same,plant injury at 125 g/ha,"[7]; Triticum aestivum, post-emergence, 240 h, 125 g ai/ha, read-out: Plant response rating, Wheat",80%
same,plant injury at 500 g/ha,"[7]; Triticum aestivum, post-emergence, 240 h, 500 g ai/ha, read-out: Plant response rating, Wheat",90%
same,pest or weed control at 62 g/ha,"[8]; Sorghum halepense, pre-emergence, 62 g ai/ha, preemergence, scale 0 (no effect) to 100 (complete control), read-out: Johnsongrass plant response rating",90%
same,pest or weed control at 125 g/ha,"[8]; Sorghum halepense, pre-emergence, 125 g ai/ha, preemergence, scale 0 (no effect) to 100 (complete control), read-out: Johnsongrass plant response rating",100%
same,pest or weed control at 250 g/ha,"[8]; Sorghum halepense, pre-emergence, 250 g ai/ha, preemergence, scale 0 (no effect) to 100 (complete control), read-out: Johnsongrass plant response rating",100%
same,pest or weed control at 31 g/ha,"[8]; Sorghum halepense, pre-emergence, Preemergence, 31 g ai/ha, scale 0 to 100, 0 no effect, 100 complete control, read-out: Plant response rating, Johnsongrass",75%
same,plant injury at 62 g/ha,"[9]; Triticum aestivum, pre-emergence, 62 g ai/ha, preemergence, scale 0 (no effect) to 100 (complete control), read-out: Wheat plant response rating",35%
same,plant injury at 125 g/ha,"[9]; Triticum aestivum, pre-emergence, 125 g ai/ha, preemergence, scale 0 (no effect) to 100 (complete control), read-out: Wheat plant response rating",85%
same,plant injury at 250 g/ha,"[9]; Triticum aestivum, pre-emergence, 250 g ai/ha, preemergence, scale 0 (no effect) to 100 (complete control), read-out: Wheat plant response rating",90%
same,plant injury at 31 g/ha,"[9]; Triticum aestivum, pre-emergence, Preemergence, 31 g ai/ha, scale 0 to 100, 0 no effect, 100 complete control, read-out: Plant response rating, Wheat",10%
same,"Corn plant response rating (crop injury, 0 = no effect, 100 = complete kill) at 125 g/ha","[10]; Zea mays, pre-emergence, 240 h, 125 g ai/ha, 0 to 100 scale where 0 is no effect and 100 is complete control",80%
same,plant injury at 500 g/ha,"[10]; Zea mays, pre-emergence, 240 h, 500 g ai/ha, 0 to 100 scale, 0 no effect, 100 complete control, approx. 10 days, read-out: Corn plant response rating",100%
same,pest or weed control at 62 g/ha,"[11]; Amaranthus tuberculatus, pre-emergence, 62 g ai/ha, preemergence, scale 0 (no effect) to 100 (complete control), read-out: Waterhemp plant response rating",100%
same,pest or weed control at 125 g/ha,"[11]; Amaranthus tuberculatus, pre-emergence, 125 g ai/ha, preemergence, scale 0 (no effect) to 100 (complete control), read-out: Waterhemp plant response rating",100%
same,pest or weed control at 250 g/ha,"[11]; Amaranthus tuberculatus, pre-emergence, 250 g ai/ha, preemergence, scale 0 (no effect) to 100 (complete control), read-out: Waterhemp plant response rating",100%
same,pest or weed control at 31 g/ha,"[11]; Amaranthus tuberculatus, pre-emergence, Preemergence, 31 g ai/ha, scale 0 to 100, 0 no effect, 100 complete control, read-out: Plant response rating, Waterhemp",100%
same,pest or weed control at 125 g/ha,"[12]; Digitaria sanguinalis, post-emergence, 240 h, 125 g ai/ha, 0 to 100 scale where 0 is no effect and 100 is complete control, read-out: Plant response rating, Crabgrass, Large",100%
same,pest or weed control at 500 g/ha,"[12]; Digitaria sanguinalis, post-emergence, 240 h, 500 g ai/ha, 0 to 100 scale, 0 no effect, 100 complete control, read-out: Plant response rating Crabgrass, Large",100%
N#Cc1cccc(Oc2ncc(Cl)cn2)c1-n1cc(Cl)cn1 [Compound 72],Galium plant response rating,[1]; [13],90
same,Galium plant response rating,[1]; [14],90
same,Galium plant response rating,[1]; [15],95
same,"Plant response rating, Galium",[1]; [16],80
same,"Plant response rating, Pigweed",[2]; [17],100
same,Pigweed plant response rating,[2]; [18],100
same,"Plant response rating (0 to 100), Corn","[3]; 125 g ai/ha, postemergence",15
same,"Plant response rating (0 to 100), Corn","[3]; 250 g ai/ha, postemergence",20
same,"Plant response rating, Corn",[3]; [19],5
same,"Plant response rating, Corn",[3]; [20],10
same,"Plant response rating (0 to 100), Ryegrass, Italian","[4]; 125 g ai/ha, postemergence",10
same,"Plant response rating (0 to 100), Ryegrass, Italian","[4]; 250 g ai/ha, postemergence",10
same,"Plant response rating, Ryegrass, Italian",[4]; [19],5
same,"Plant response rating, Ryegrass, Italian",[4]; [20],5
same,"Plant response rating, Ducksalad",[5],75
same,"Plant response rating, Foxtail, Giant",[6]; 125 g ai/ha,90
same,"Plant response rating, Foxtail, Giant",[6]; 500 g ai/ha,100
same,"Plant response rating, Wheat",[7]; 125 g ai/ha,20
same,"Plant response rating, Wheat",[7]; 500 g ai/ha,50
same,Johnsongrass plant response rating,[8]; [13],55
same,Johnsongrass plant response rating,[8]; [14],100
same,Johnsongrass plant response rating,[8]; [15],100
same,"Plant response rating, Johnsongrass",[8]; [16],35
same,Wheat plant response rating,[9]; [13],0
same,Wheat plant response rating,[9]; [14],30
same,Wheat plant response rating,[9]; [15],35
same,"Plant response rating, Wheat",[9]; [16],0
same,"Plant response rating, Corn",[10]; [17],30
same,Corn plant response rating,[10]; [18],50
same,Waterhemp plant response rating,[11]; [13],100
same,Waterhemp plant response rating,[11]; [14],100
same,Waterhemp plant response rating,[11]; [15],100
same,"Plant response rating, Waterhemp",[11]; [16],100
same,"Plant response rating, Crabgrass, Large",[12]; [17],100
same,"Plant response rating, Crabgrass, Large","[12]; 500 g ai/ha, 0 to 100 scale, 0 no effect, 100 complete control",100

# — patent US9695155B2, “Herbicidal substituted pyrimidinyloxy benzene compounds” (E. I. DU PONT DE NEMOURS AND COMPANY, priority 2013, dated 2017)
